Results as given in patent US11149018B2, “Substituted N-arylethyl-2-aminoquinoline-4-carboxamides and use thereof” (Bayer Aktiengesellschaft, priority 2017, dated 2021).

These molecules were tested against FP receptor (Homo sapiens (Human), UniProt P43088) (assay: In vitro test of inhibition of human FP receptor activity (PGF2α-induced calcium flux in FP-expressing CHEM1 cells)). Conditions: PGF2α 2 nM, some mean values of multiple determinations.
Assay type: cell-based
Description: B-1. In Vitro Test of Inhibition of Human FP Receptor Activity
For the characterization of test substances in respect of FP antagonism, PGF2α-induced calcium flux in FP-expressing CHEM1 cells (Millipore, HTS093C) was used.
10 μl of the prediluted substance solution are added to the Fluo-8-laden cells and incubated at 37° C., 5% CO2 for 10 minutes. The FP receptor is activated by adding 40 μl of 2 nM (final concentration) PGF2α in calcium-free Tyrode, 2 mM CaCl2, 0.002% SmartBlock, and the calcium flux is determined by measuring the fluorescence at ex. 470 nm/[…].
Table 1 below lists the IC50 values from this assay for individual working examples of the invention (some as mean values from multiple independent individual determinations): […]

Sequence of FP receptor (P43088 whole entry): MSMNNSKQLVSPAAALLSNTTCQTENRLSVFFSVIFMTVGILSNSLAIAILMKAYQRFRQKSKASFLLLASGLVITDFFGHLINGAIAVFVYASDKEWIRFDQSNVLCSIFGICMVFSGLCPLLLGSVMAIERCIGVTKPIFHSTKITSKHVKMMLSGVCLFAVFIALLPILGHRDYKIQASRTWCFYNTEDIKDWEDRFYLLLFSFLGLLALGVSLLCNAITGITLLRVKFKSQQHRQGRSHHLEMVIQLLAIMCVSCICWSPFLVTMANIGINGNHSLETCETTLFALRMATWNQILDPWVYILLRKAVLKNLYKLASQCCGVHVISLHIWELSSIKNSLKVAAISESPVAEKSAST

Row | Molecule | IC50 [nM]
1 | Cc1c(N2CCCC(C)C2)nc2ccc(Br)cc2c1C(=O)NCC(CCC(=O)O)c1ccccc1Cl (single isomer, unassigned; (+)) [Example 47, (+)-5-[({6-Bromo-3-methyl-2-[3-methylpiperidin-1-yl]quinolin-4-yl}carbonyl)amino]-4-(2-chlorophenyl)pentanoic acid] | 14
2 | Cc1c(N2CCCCC2)nc2ccc(Br)cc2c1C(=O)NCC(CCC(=O)O)c1cc(F)ccc1F (racemic) [Example 255, (+/−)-5-({[6-Bromo-3-methyl-2-(piperidin-1-yl)quinolin-4-yl]carbonyl}amino)-4-(2,5-difluorophenyl)pentanoic acid] | 20
3 | CCC1CCCN(c2nc3ccc(Br)cc3c(C(=O)NCC(CCC(=O)O)c3ccccc3OC(F)(F)F)c2C)C1 (single isomer, unassigned) [Example 206, 5-[({6-Bromo-2-[3-ethylpiperidin-1-yl]-3-methylquinolin-4-yl}carbonyl)amino]-4-[2-(trifluoromethoxy)phenyl]pentanoic acid] | 9.5
4 | Cc1c(N2CCCC(C)C2)nc2ccc(Br)cc2c1C(=O)NCC(CCC(=O)O)c1ccccc1Cl (stereo not drawn) [Example 45, 5-[({6-Bromo-3-methyl-2-[3-methylpiperidin-1-yl]quinolin-4-yl}carbonyl)amino]-4-(2-chlorophenyl)pentanoic acid] | 4.7
5 | Cc1c(N2CCCCC2)nc2ccc(Br)cc2c1C(=O)NCC(CCC(=O)O)c1c(F)cccc1C(F)(F)F (racemic) [Example 160, (+/−)-5-({[6-Bromo-3-methyl-2-(piperidin-1-yl)quinolin-4-yl]carbonyl}amino)-4-[2-fluoro-6-(trifluoromethyl)phenyl]pentanoic acid] | 5.3
6 | Cc1ccc(F)cc1C(CCC(=O)O)CNC(=O)c1c(C)c(N2CCCCC2)nc2ccc(Br)cc12 (racemic) [Example 147, (+/−)-5-({[6-Bromo-3-methyl-2-(piperidin-1-yl)quinolin-4-yl]carbonyl}amino)-4-(5-fluoro-2-methylphenyl)pentanoic acid] | 8
7 | CCC1CCCN(c2nc3ccc(Br)cc3c(C(=O)NCC(CCC(=O)O)c3ccccc3C(F)(F)F)c2C)C1 (single isomer, unassigned; (+)) [Example 196, (+)-5-[({6-Bromo-2-[3-ethylpiperidin-1-yl]-3-methylquinolin-4-yl}carbonyl)amino]-4-[2-(trifluoromethyl)phenyl]pentanoic acid] | 2.6
8 | Cc1c(N2CCCC2)nc2ccc(Br)cc2c1C(=O)NCC(CCC(=O)O)c1ccccc1C(F)(F)F (single isomer, unassigned; (+)) [Example 115, (+)-5-({[6-Bromo-3-methyl-2-(pyrrolidin-1-yl)quinolin-4-yl]carbonyl}amino)-4-[2-(trifluoromethyl)phenyl]pentanoic acid] | 29
9 | Cc1c(N2CCCCCC2)nc2ccc(Br)cc2c1C(=O)NCC(CCC(=O)O)c1ccccc1C(F)(F)F (single isomer, unassigned; (-)) [Example 121, (−)-5-({[2-(Azepan-1-yl)-6-bromo-3-methylquinolin-4-yl]carbonyl}amino)-4-[2-(trifluoromethyl)phenyl]pentanoic acid] | 4.1
10 | CCC1CCCN(c2nc3ccc(Br)cc3c(C(=O)NCC(CCC(=O)O)c3cc(F)ccc3F)c2C)C1 (single isomer, unassigned; (+)) [Example 227, (+)-5-[({6-Bromo-2-[3-ethylpiperidin-1-yl]-3-methylquinolin-4-yl}carbonyl)amino]-4-(2,5-difluorophenyl)pentanoic acid] | 57
11 | Cc1c(N2CCOC(C)C2)nc2ccc(Br)cc2c1C(=O)NCC(CCC(=O)O)c1ccccc1Cl (stereo not drawn) [Example 89, 5-[({6-Bromo-3-methyl-2-[2-methylmorpholin-4-yl]quinolin-4-yl}carbonyl)amino]-4-(2-chlorophenyl)pentanoic acid] | 350
12 | Cc1c(N2CCCCC2)nc2ccc(Br)cc2c1C(=O)NCC(CCC(=O)O)c1cc(F)ccc1F (single isomer, unassigned; (+)) [Example 257, (+)-5-({[6-Bromo-3-methyl-2-(piperidin-1-yl)quinolin-4-yl]carbonyl}amino)-4-(2,5-difluorophenyl)pentanoic acid] | 15
13 | Cc1c(N2CCCC(F)C2)nc2ccc(Br)cc2c1C(=O)NCC(CCC(=O)O)c1c(F)ccc(F)c1Cl (stereo not drawn) [Example 156, 5-[({6-Bromo-2-[3-fluoropiperidin-1-yl]-3-methylquinolin-4-yl}carbonyl)amino]-4-(2-chloro-3,6-difluorophenyl)pentanoic acid] | 2.5
14 | Cc1c(N2CCCCC2)nc2ccc(Br)cc2c1C(=O)NCC(CCC(=O)O)c1c(Cl)ccc(F)c1F (racemic) [Example 144, (+/−)-5-({[6-Bromo-3-methyl-2-(piperidin-1-yl)quinolin-4-yl]carbonyl}amino)-4-(6-chloro-2,3-difluorophenyl)pentanoic acid] | 2.2
15 | CCC1CCCN(c2nc3ccc(Br)cc3c(C(=O)NCC(CCC(=O)O)c3ccccc3OC(F)(F)F)c2C)C1 (single isomer, unassigned; (-)) [Example 207, (−)-5-[({6-Bromo-2-[3-ethylpiperidin-1-yl]-3-methylquinolin-4-yl}carbonyl)amino]-4-[2-(trifluoromethoxy)phenyl]pentanoic acid] | 22
16 | (+)-5-[({6-Bromo-3-methyl-2-[(^2H8)pyrrolidin-1-yl]quinolin-4-yl}carbonyl)amino]-4-[2-(trifluoromethyl)phenyl]pentanoic acid [Example 278] | 34
17 | Cc1c(NCc2ccccc2)nc2ccc(Br)cc2c1C(=O)NCC(CCC(=O)O)c1ccccc1Cl (racemic) [Example 96, (+/−)-5-({[2-(Benzylamino)-6-bromo-3-methylquinolin-4-yl]carbonyl}amino)-4-(2-chlorophenyl)pentanoic acid] | 950
18 | Cc1c(NCC2CCCCC2)nc2ccc(Br)cc2c1C(=O)NCC(CCC(=O)O)c1ccccc1Cl (racemic) [Example 99, (+/−)-5-[({6-Bromo-2-[(cyclohexylmethyl)amino]-3-methylquinolin-4-yl}carbonyl)amino]-4-(2-chlorophenyl)pentanoic acid] | 500
19 | Cc1c(N2CCCC(F)(F)C2)nc2ccc(Br)cc2c1C(=O)NCC(CCC(=O)O)c1ccccc1C(F)(F)F (racemic) [Example 117, (+/−)-5-({[6-Bromo-2-(3,3-difluoropiperidin-1-yl)-3-methylquinolin-4-yl]carbonyl}amino)-4-[2-(trifluoromethyl)phenyl]pentanoic acid] | 16
20 | Cc1c(N2CCCC(C)C2)nc2ccc(Br)cc2c1C(=O)NCC(CCC(=O)O)c1ccccc1C(F)(F)F (single isomer, unassigned; (-)) [Example 200, (−)-5-[({6-Bromo-3-methyl-2-[3-methylpiperidin-1-yl]quinolin-4-yl}carbonyl)amino]-4-[2-(trifluoromethyl)phenyl]pentanoic acid] | 17
21 | [2H]C1([2H])N(c2nc3ccc(Br)cc3c(C(=O)NCC(CCC(=O)O)c3ccccc3C(F)(F)F)c2C)C([2H])([2H])C([2H])([2H])C1([2H])[2H] (single isomer, unassigned; (-)) [Example 277, (−)-5-[({6-Bromo-3-methyl-2-[(^2H8)pyrrolidin-1-yl]quinolin-4-yl}carbonyl)amino]-4-[2-(trifluoromethyl)phenyl]pentanoic acid] | 34
22 | Cc1c(N2CCCCC2)nc2ccc(Br)cc2c1C(=O)NCC(CCC(=O)O)c1ccccc1OC(F)(F)F (single isomer, unassigned; (+)) [Example 128, (+)-5-({[6-Bromo-3-methyl-2-(piperidin-1-yl)quinolin-4-yl]carbonyl}amino)-4-[2-(trifluoromethoxy)phenyl]pentanoic acid] | 3.8
23 | Cc1c(N2CCCC(F)(F)C2)nc2ccc(Br)cc2c1C(=O)NCC(CCC(=O)O)c1ccccc1C(F)(F)F (single isomer, unassigned; (+)) [Example 119, (+)-5-({[6-Bromo-2-(3,3-difluoropiperidin-1-yl)-3-methylquinolin-4-yl]carbonyl}amino)-4-[2-(trifluoromethyl)phenyl]pentanoic acid] | 14
24 | Cc1c(N2CCC(F)(F)C2)nc2ccc(Br)cc2c1C(=O)NCC(CCC(=O)O)c1ccccc1Cl (racemic) [Example 37, (+/−)-5-({[6-Bromo-2-(3,3-difluoropyrrolidin-1-yl)-3-methylquinolin-4-yl]carbonyl}amino)-4-(2-chlorophenyl)pentanoic acid] | 22
25 | CCC1CCCN(c2nc3ccc(Br)cc3c(C(=O)NCC(CCC(=O)O)c3cc(F)ccc3F)c2C)C1 (racemic) [Example 226, (−)-5-[({6-Bromo-2-[3-ethylpiperidin-1-yl]-3-methylquinolin-4-yl}carbonyl)amino]-4-(2,5-difluorophenyl)pentanoic acid] | 1.8
26 | Cc1ccc(F)cc1C(CCC(=O)O)CNC(=O)c1c(C)c(N2CCCC(F)(F)C2)nc2ccc(Br)cc12 (racemic) [Example 150, (+/−)-5-({[6-Bromo-2-(3,3-difluoropiperidin-1-yl)-3-methylquinolin-4-yl]carbonyl}amino)-4-(5-fluoro-2-methylphenyl)pentanoic acid] | 22
27 | Cc1c(N2CCCC(F)C2)nc2ccc(Br)cc2c1C(=O)NCC(CCC(=O)O)c1ccccc1C(F)(F)F (single isomer, unassigned) [Example 191, 5-[({6-Bromo-2-[3-fluoropiperidin-1-yl]-3-methylquinolin-4-yl}carbonyl)amino]-4-[2-(trifluoromethyl)phenyl]pentanoic acid] | 4.1
